Results reported in patent US9556148B2, “N-cyanomethylamides as inhibitors of janus kinase” (CADILA HEALTHCARE LIMITED, priority 2013, dated 2017).

Key:
Format in all cases: biochemical
[1] = target: recombinant purified human JAK1 (Homo sapiens (Human), UniProt P23458); assay: in vitro JAK kinase assay on ADP Glo platform, JAK1; conditions: 50 μM ATP, 1 hr at room temperature
Experimental: (§1) NCEs were screened using in vitro JAK (1, 2 and 3) kinase assay on ADP Glo platform (Promega). Fixed amount of recombinant purified human JAK (25 ng of JAK1 and 10 ng of JAK2 and JAK3 per reaction, from Life Technologies Ltd) were incubated with increasing concentration of NCEs in 1× kinase reaction buffer (40 mM Tris-Cl, pH7.5, 20 mM MgCl2, 0.1 mg/ml BSA and 50 μM DTT). Enzymatic reaction was initiated by adding a substrate cocktail containing 50 μM of ATP (final concentration) and 5 μg for JAK1 and 2.5 μg for JAK2 and JAK3 of polyGln4Tyr1 (Signal Chem) in total 25 μl of reaction in 96 well plate. The reaction was incubated at room temperature for 1 hr.
(§2) After 1 hr of incubation equal volume (25 μl per reaction) of ADP Glo was added and incubated at room temperature for 40 min.
(§3) This was followed by addition of kinase detection reagent (50 μl per reaction) and incubation at room temperature for 30 min. Finally, plate was read for luminescence at an integration time of 500 millisecond per well.
(§4) Data were plotted taking Enzyme with no inhibitor set as the 100% kinase activity. IC50 values were calculated using Graph Pad Prism software.

[2] = target: recombinant purified human JAK2 (Homo sapiens (Human), UniProt O60674); assay: in vitro JAK kinase assay on ADP Glo platform, JAK2; conditions: 50 μM ATP, 1 hr at room temperature; read-out: JAK-2 IC50
Sequence of recombinant purified human JAK2 (O60674 whole entry): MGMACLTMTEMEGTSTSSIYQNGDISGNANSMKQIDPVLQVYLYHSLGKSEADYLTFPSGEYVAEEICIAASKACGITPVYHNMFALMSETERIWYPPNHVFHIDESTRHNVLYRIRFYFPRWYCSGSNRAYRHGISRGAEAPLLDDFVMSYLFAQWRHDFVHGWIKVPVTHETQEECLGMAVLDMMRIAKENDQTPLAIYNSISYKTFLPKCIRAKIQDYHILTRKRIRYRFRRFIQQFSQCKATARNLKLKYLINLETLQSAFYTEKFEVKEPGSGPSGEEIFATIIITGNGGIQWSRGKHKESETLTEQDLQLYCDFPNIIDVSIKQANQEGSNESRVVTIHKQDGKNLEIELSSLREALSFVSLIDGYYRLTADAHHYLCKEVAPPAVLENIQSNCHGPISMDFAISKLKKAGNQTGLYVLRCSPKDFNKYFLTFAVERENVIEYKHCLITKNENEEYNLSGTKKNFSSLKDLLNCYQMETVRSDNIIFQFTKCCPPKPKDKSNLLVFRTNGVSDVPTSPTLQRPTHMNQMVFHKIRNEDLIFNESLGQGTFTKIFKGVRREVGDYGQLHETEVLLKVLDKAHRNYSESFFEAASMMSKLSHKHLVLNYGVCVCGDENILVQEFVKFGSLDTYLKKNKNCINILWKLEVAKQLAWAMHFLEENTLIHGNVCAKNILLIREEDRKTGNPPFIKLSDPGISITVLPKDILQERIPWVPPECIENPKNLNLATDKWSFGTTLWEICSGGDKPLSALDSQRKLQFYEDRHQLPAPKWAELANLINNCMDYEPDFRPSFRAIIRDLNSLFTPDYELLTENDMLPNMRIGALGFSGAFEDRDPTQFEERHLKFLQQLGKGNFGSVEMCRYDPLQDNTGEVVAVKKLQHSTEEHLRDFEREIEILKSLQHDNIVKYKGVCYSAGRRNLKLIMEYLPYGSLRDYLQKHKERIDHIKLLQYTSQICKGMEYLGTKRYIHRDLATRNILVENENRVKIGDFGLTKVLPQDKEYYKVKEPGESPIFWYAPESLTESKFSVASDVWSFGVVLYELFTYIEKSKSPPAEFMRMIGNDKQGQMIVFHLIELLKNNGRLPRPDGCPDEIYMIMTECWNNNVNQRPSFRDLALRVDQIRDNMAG
Experimental: as §1, §2, §3, §4

[3] = target: recombinant purified human JAK3 (Homo sapiens (Human), UniProt P52333); assay: in vitro JAK kinase assay on ADP Glo platform, JAK3; conditions: 50 μM ATP, 1 hr at room temperature; read-out: JAK-3 IC50
Sequence of recombinant purified human JAK3 (P52333 whole entry): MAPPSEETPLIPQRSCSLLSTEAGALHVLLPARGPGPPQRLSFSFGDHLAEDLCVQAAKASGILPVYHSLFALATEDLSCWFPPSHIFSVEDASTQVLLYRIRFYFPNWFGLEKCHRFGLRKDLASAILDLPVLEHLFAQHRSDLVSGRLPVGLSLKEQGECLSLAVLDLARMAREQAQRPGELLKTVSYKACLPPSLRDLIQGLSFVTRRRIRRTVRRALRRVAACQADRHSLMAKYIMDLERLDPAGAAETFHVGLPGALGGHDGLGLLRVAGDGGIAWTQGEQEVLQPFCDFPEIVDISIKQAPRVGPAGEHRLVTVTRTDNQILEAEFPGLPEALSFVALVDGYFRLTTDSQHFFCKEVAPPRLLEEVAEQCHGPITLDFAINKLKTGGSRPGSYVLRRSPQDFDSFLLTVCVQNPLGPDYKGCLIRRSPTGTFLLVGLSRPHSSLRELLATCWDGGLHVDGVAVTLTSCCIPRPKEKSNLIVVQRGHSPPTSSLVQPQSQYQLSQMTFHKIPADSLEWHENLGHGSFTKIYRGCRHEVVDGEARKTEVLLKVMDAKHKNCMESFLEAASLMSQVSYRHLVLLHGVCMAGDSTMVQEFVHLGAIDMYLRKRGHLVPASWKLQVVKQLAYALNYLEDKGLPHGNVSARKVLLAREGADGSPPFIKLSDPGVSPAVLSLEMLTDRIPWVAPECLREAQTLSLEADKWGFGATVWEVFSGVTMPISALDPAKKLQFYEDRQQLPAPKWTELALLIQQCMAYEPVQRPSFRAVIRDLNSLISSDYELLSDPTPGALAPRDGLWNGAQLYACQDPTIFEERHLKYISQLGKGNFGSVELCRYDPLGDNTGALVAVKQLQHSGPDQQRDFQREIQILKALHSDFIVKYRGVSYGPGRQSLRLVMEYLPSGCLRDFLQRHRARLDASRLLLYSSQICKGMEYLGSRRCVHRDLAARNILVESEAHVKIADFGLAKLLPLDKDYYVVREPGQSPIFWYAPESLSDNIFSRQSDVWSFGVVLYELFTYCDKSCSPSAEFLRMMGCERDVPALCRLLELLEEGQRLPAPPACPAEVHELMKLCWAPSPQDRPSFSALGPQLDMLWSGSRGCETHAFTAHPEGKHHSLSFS
Experimental: as §1, §2, §3, §4

Sequence of recombinant purified human JAK1 (P23458 whole entry): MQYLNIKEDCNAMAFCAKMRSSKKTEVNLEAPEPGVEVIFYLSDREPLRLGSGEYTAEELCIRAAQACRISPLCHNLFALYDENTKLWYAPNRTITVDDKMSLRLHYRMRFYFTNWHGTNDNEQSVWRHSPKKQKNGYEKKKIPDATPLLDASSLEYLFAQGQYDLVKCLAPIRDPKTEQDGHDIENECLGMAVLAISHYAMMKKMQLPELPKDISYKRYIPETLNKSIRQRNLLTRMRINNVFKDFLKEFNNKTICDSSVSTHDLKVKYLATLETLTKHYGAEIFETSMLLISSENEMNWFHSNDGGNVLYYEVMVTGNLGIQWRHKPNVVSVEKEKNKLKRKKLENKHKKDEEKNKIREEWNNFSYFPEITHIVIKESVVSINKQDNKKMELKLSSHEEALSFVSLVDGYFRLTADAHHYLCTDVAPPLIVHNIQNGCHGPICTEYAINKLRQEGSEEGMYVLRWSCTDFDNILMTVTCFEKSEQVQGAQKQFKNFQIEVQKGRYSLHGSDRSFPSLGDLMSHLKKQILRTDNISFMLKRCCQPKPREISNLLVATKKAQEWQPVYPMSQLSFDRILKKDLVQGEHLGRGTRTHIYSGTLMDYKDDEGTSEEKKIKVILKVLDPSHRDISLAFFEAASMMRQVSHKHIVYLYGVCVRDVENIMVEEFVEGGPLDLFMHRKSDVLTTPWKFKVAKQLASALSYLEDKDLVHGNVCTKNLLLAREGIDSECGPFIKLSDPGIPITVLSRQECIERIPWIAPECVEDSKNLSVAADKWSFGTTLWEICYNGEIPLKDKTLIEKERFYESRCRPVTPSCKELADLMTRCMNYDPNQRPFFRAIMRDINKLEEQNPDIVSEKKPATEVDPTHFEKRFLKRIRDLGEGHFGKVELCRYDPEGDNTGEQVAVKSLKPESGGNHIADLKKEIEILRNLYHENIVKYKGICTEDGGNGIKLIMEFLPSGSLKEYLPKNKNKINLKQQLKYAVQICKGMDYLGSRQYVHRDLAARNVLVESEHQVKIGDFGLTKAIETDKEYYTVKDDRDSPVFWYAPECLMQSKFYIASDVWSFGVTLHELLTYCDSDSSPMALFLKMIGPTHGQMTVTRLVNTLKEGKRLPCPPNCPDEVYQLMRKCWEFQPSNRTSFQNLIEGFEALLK

Compound | IC50 [1] [nM] | IC50 [2] [nM] | IC50 [3] [nM]
N#CCNC(=O)c1ccc(-c2ccnc(Nc3ccc(N4CCC(N5CCCS5(=O)=O)CC4)cc3)n2)cc1 [Example 2, N-(cyanomethyl)-4-(2-((4-(4-(1,1-dioxidoisothiazolidin-2-yl)piperidin-1-yl)phenyl)amino)pyrimidin-4-yl)benzamide] | 5.1 | 4 | 51
N#CCNC(=O)c1ccc(-c2ccnc(Nc3ccc(N4CCC(N5CCCC5)C4)cc3)n2)cc1 (stereo not drawn) [Example 6, 4-(2-((4-([1,3′-Bipyrrolidin]-1′-yl)phenyl)amino)pyrimidin-4-yl)-N-(cyanomethyl)benzamide] | 16 | 19 | 155
N#CCNC(=O)c1ccc(-c2ccnc(Nc3ccc(N4CCN(C5CCS(=O)(=O)CC5)CC4)cc3)n2)cc1 [Example 7, N-(cyanomethyl)-4-(2-((4-(4-(1,1-dioxidotetrahydro-2H-thiopyran-4-yl)piperazin-1-yl)phenyl)amino)pyrimidin-4-yl)benzamide] | 14 | 12 | 62
N#CCNC(=O)c1ccc(-c2ccnc(Nc3ccc(N4CCN(C5CCS(=O)(=O)C5)CC4)cc3)n2)cc1 (stereo not drawn) [Example 9, N-(cyanomethyl)-4-(2-((4-(4-(1,1-dioxidotetrahydrothiophen-3-yl)piperazin-1-yl)phenyl)amino)pyrimidin-4-yl)benzamide] | 14 | 8 | 40
N#CCNC(=O)c1ccc(-c2ccnc(Nc3ccc(N4CCC(N5CCOC5=O)CC4)cc3)n2)cc1 [Example 12, N-(cyanomethyl)-4-(2-((4-(4-(2-oxooxazolidin-3-yl)piperidin-1-yl)phenyl)amino)pyrimidin-4-yl)benzamide] | 25 | – | 78
N#CCNC(=O)c1ccc(-c2ccnc(Nc3ccc(N4CCN(C5CCOCC5)CC4)cc3)n2)cc1 [Example 15, N-(cyanomethyl)-4-(2-((4-(4-(tetrahydro-2H-pyran-4-yl)piperazin-1-yl)phenyl)amino)pyrimidin-4-yl)benzamide] | 16 | 11 | 88
N#CCNC(=O)c1ccc(-c2ccnc(Nc3ccc(N4CCC(N5CCNC5=O)CC4)cc3)n2)cc1 [Example 18, N-(cyanomethyl)-4-(2-((4-(4-(2-oxoimidazolidin-1-yl)piperidin-1-yl)phenyl)amino)pyrimidin-4-yl)benzamide] | 9 | 11 | 50
N#CCNC(=O)c1ccc(-c2ccnc(Nc3ccc(N4CCC(c5nnco5)CC4)cc3)n2)cc1 [Example 19, 4-(2-((4-(4-(1,3,4-oxadiazol-2-yl)piperidin-1-yl)phenyl)amino)pyrimidin-4-yl)-N-(cyanomethyl)benzamide] | 10 | 7 | 40
N#CCNC(=O)c1ccc(-c2ccnc(Nc3ccc(N4CCC(N5CC6OCCOC6C5)CC4)cc3)n2)cc1 (stereo not drawn) [Example 27, N-(cyanomethyl)-4-(2-((4-(4-(tetrahydro-2H-[1,4]dioxino[2,3-c]pyrrol-6(3H)-yl)piperidin-1-yl)phenyl)amino)pyrimidin-4-yl)benzamide] | 10 | 5 | 49
Cc1nnc(N2CCN(c3ccc(Nc4nccc(-c5ccc(C(=O)NCC#N)cc5)n4)cc3)CC2)o1 [Example 36, N-(cyanomethyl)-4-(2-((4-(4-(5-methyl-1,3,4-oxadiazol-2-yl)piperazin-1-yl)phenyl)amino)pyrimidin-4-yl)benzamide] | 9.2 | – | 46.9
CC(=O)N1C2CC1CN(C1CCN(c3ccc(Nc4nccc(-c5ccc(C(=O)NCC#N)cc5)n4)cc3)CC1)C2 [Example 39, 4-(2-((4-(4-(6-acetyl-3,6-diazabicyclo[3.1.1]heptan-3-yl)piperidin-1-yl)phenyl)amino)pyrimidin-4-yl)-N-(cyanomethyl)benzamide] | 8.8 | – | 50.7
